Assay [1] deals with Rhizoctonia solani (RHI). Put plainly: In-vitro plant fungicide test. The assay is classed as cell-based. The settings on record: 25 ppm, Table IVa; for inhibition of growth at 25 ppm: Rhizoctonia solani, read-out: % Control at 25 ppm RHI.
The test system of assay [2] is Xanthomonas campestris (XAN). Put plainly: In-vitro plant fungicide test. The assay is classed as cell-based. As to conditions: 25 ppm, Table IVa; for inhibition of growth at 25 ppm: Xanthomonas campestris, read-out: % Control at 25 ppm XAN.
Assay [3] has as its system Staphylococcus aureus (SAUR). Description: Minimum inhibitory concentration (MIC), broth two-fold serial dilution test. The settings on record: Table IIIa; for MIC (G+) SAUR: M9G (minimal salts media with glucose); for MIC: Staphylococcus aureus, read-out: MIC (G+) SAUR, M9G (minimal salts media with glucose).
For assay [4], the system named is Septoria nodorum (SEP). Description: In-vitro plant fungicide test. The class given is cell-based. As to conditions: 25 ppm, Table IVa; for inhibition of growth at 25 ppm: Parastagonospora nodorum, read-out: % Control at 25 ppm SEP.
The test system of assay [5] is Phytophthora capsici (PHY). Description: In-vitro plant fungicide test. The class given is cell-based. The settings on record: 25 ppm, Table IVa; for inhibition of growth at 25 ppm: Phytophthora capsici, read-out: % Control at 25 ppm PHY.
Assay [6] concerns Fusarium roseum (FUS). Description: In-vitro plant fungicide test. The assay is classed as cell-based. As to conditions: Table IVa, *=Phytotoxic; for inhibition of growth at 25 ppm: Fusarium sambucinum, read-out: % Control at 25 ppm FUS, 25 ppm.
The test system of assay [7] is Botrytis cinerea (BOC). Put plainly: In-vitro plant fungicide test. The assay is classed as cell-based. As to conditions: 25 ppm, Table IVa, *=Phytotoxic; for inhibition of growth at 25 ppm: Botrytis cinerea, read-out: % Control at 25 ppm BOC.
Assay [8] relates to Piricularia oryzae (PIR). Description: microbe, parasite or virus in culture. The class given is cell-based. The settings on record: for inhibition of growth at 25 ppm: read-out: % Control at 25 ppm PIR.
Assay [9] has as its system Pythium ultimum (PYU). Description: In-vitro plant fungicide test. The assay is classed as cell-based. The settings on record: 25 ppm, Table IVa; for inhibition of growth at 25 ppm: Globisporangium ultimum, read-out: % Control at 25 ppm PYU.
For assay [10], the system named is Cochliobolus sativus (HEL). Put plainly: In-vitro plant fungicide test. The assay is classed as cell-based. As to conditions: 25 ppm, Table IVa, *=Phytotoxic; for inhibition of growth at 25 ppm: Bipolaris sorokiniana, read-out: % Control at 25 ppm HEL.
Assay [11] deals with THREE FUNGI. Put plainly: MIC test against three fungi in Mycophile Broth, pH 5.0, read after 8 days (Table VII). The class given is cell-based. The settings on record: for MIC: 192 h.
In assay [12] the test system is Pseudomonas aerugenosa (PSAE). Description: Minimum inhibitory concentration (MIC), broth two-fold serial dilution test. The settings on record: Table IIIa; for MIC (G-) PSAE: M9G (minimal salts media with glucose); for MIC: Pseudomonas, read-out: MIC (G-) PSAE, M9G (minimal salts media with glucose).
Assay [13] deals with Escherichia coli (ECOL). The description is as above. The settings on record: for MIC: Escherichia coli, read-out: MIC (G-) ECOL, M9G (minimal salts media with glucose); for MIC (G-) ECOL: M9G (minimal salts media with glucose).
Assay [14] concerns Aureobasidium pullulans (APUL). Described as above. The settings on record: for MIC: Aureobasidium pullulans. The class given is cell-based.
The test system of assay [15] is Aspergillus niger (ANIG). The description is as above. As to conditions: for MIC: Aspergillus niger. The class given is cell-based.
Assay [16] deals with Pseudomonas fluorescens (PSFL). The description is as above. As to conditions: Table IIIa; for MIC (G-) PSFL: M9G (minimal salts media with glucose).
Text: When the test is ready to be done, each vessel in the dilution series, except the first vessel, contains an equal volume of compound free broth. The first vessel contains twice the volume of broth with the starting concentration of test compound. One half of the broth from the first vessel is transferred to the second vessel. After being mixed, one half the resulting volume is removed from the second vessel and transferred to the third vessel. The entire cycle is repeated sufficiently to give a series of concentrations amounting to 500, 250, 125, 63, 31, 16, 8, and 4 ppm (or 100, 50, 25, 12.5, 6.2, 3.1, 1.6, and 0.8), respectively.
Each vessel is then inoculated with a cell suspension of the appropriate test organism. Bacteria are grown in broth, fungi on agar slants for a time and at a temperature appropriate to the species being tested, and algae are a mixture of green algae and blue-green bacteria grown in a nutrient media. At the end of the growth period, in the case of bacteria, the broth is vortexed to disperse the cells.
The vessels are then incubated at the appropriate temperature. After the incubation, the vessels are examined for growth/no growth.
Setting [17] is: Aspergillus niger, serial dilutions from 50 ppm, read after 8 days of incubation.
[18] abbreviates: Aureobasidium pullulans, serial dilutions from 50 ppm, read after 8 days of incubation.
[19] abbreviates: Aspergillus niger, pH 5, read-out: MIC ANIG, Aspergillus niger, serial dilutions from 50 ppm, read after 8 days of incubation.
Where [20] appears, read: Aureobasidium pullulans, pH 5, read-out: MIC APUL, Aureobasidium pullulans, serial dilutions from 50 ppm, read after 8 days of incubation.
The mark [21] stands for this setting: Gloeophyllum trabeum, pH 5, read-out: MIC GTRA, Gloeophyllum trabeum, serial dilutions from 50 ppm, read after 8 days of incubation.
The mark [22] stands for this setting: M9G (minimal salts media with glucose), Table IIIa, trifluoroacetate.
Where [23] appears, read: M9G (minimal salts media with glucose), Table IIIa.
Where [24] appears, read: Aspergillus niger, serial dilutions from 50 ppm, read after 8 days of incubation, read-out: MIC ANIG.
The mark [25] stands for this setting: Aureobasidium pullulans, serial dilutions from 50 ppm, read after 8 days of incubation, read-out: MIC APUL.
Where [26] appears, read: Gloeophyllum trabeum, serial dilutions from 50 ppm, read after 8 days of incubation, read-out: MIC GTRA.
The mark [27] stands for this setting: M9G (minimal salts media with glucose), Table IIIc, iodopropargyl esters of peptides, read-out: MIC (F) APUL.
Where [28] appears, read: Table IIIc, iodopropargyl esters of peptides.
The mark [29] stands for this setting: M9G (minimal salts media with glucose), Table IIIc, iodopropargyl esters of peptides.

≈ marks a conversion by molar mass, not a printed value. Where “and” joins values, the source holds several entries; their conditions need not be identical. Equal values may be shown once. Where a name gives a salt, the structure may show the parent alone. Read-outs that look alike come from different tables or passages of the source. Where only a bound is given, the exact number is not on record here.

As for `C#CCSC[C@H](NC(=O)OC(C)(C)C)C(=O)OCC#CI` [Compound 6, N-t-butoxycarbonyl-S-propargyl-L-cysteine iodopropargyl ester], the “% Control at 25 ppm RHI” value in assay [1] came out at 100%. Also, the “% Control at 25 ppm XAN” value in assay [2] came out at 0%. The “MIC (G+) SAUR” value in assay [3] is >100 PPM and 64 PPM. Besides, the “% Control at 25 ppm SEP” value in [4] amounted to 100%. Also, the “% Control at 25 ppm PHY” value in assay [5] was found to be 100%. Moreover, in assay [6] (25 ppm), the “% Control at 25 ppm FUS” value is on record as 100%. Also, in assay [7], the “% Control at 25 ppm BOC” value amounted to 0%. For the same compound, the “% Control at 25 ppm PIR” value in assay [8] is given as 100%. Also, in assay [9], the “% Control at 25 ppm PYU” value is on record as 100%. Moreover, the “% Control at 25 ppm HEL” value in assay [10] worked out at 100%. Moreover, the “MIC ANIG” value in assay [11] (setting [17]) stood at 12.5 ppm. Further, in assay [11] (setting [18]), the “MIC APUL” value was determined as 25 ppm. Besides, in [11] (Gloeophyllum trabeum, serial dilutions from 50 ppm, read after 8 days of incubation), the “MIC GTRA” value was 3.2 ppm.
For orientation: MIC means the smallest concentration in the dilution series that meets the test's criterion for growth inhibition. As to `NCC(=O)OCC#CI` [Compound 7, glycine iodopropargyl ester trifluoroacetate], the inhibition of growth at 25 ppm in [1] turned out to be 100%; in [2], 0%; in [4] it was 100%; in assay [5], 100%; in assay [6] it was 100%; in assay [7], 100%. Also, the inhibition of growth at 25 ppm in assay [8], in assay [9] and in assay [10] was 100% throughout. Further, the “MIC (G-) PSAE” value in [12] (trifluoroacetate) came to 125 PPM. For the same compound, the MIC in [12] is 100 µg/mL; in assay [13] (Table IIIa) it was 100 µg/mL; in [11] (setting [19]), 25 µg/mL; in [11] (setting [20]) it was 50 µg/mL; in assay [11] (setting [21]), 12.5 µg/mL. For the same compound, the “MIC (G-) ECOL” value in assay [13] (Table IIIa, trifluoroacetate) was determined as 64 PPM.
Regarding `C[C@H](N)C(=O)OCC#CI` [Compound 8, L-alanine iodopropargyl ester trifluoroacetate], the inhibition of growth at 25 ppm was found to be 100% in assay [1]; 0% in [2]; 100% in assay [4]; 100% in [5]; 100% in [6]; 100% in assay [7]. The inhibition of growth at 25 ppm in [8], in [9] and in assay [10] was 100% each time. For the same compound, the “MIC (F) APUL” value in assay [14] (setting [22]) is <4 PPM and 2 PPM. For the same compound, in assay [12] (trifluoroacetate), the “MIC (G-) PSAE” value was >100 PPM. The MIC in assay [12] was found to be 125 µg/mL; in [13] (Table IIIa), 64 µg/mL; in assay [11] (setting [19]), 12.5 µg/mL; in assay [11] (setting [20]) it was 25 µg/mL; in assay [11] (setting [21]), 12.5 µg/mL. The “MIC (G-) ECOL” value in assay [13] (Table IIIa, trifluoroacetate) is listed as >100 PPM. Also, the “MIC (F) ANIG” value in [15] (setting [22]) is <4 PPM and 3 PPM.
Take `C[C@H](N)C(=O)OCC#CI` [Compound 22, L-alanine iodopropargyl ester]: the “% Control at 25 ppm XAN” value in assay [2] is 0%. Moreover, in assay [14] (setting [23]), the “MIC (F) APUL” value is <0.8 PPM. The “MIC (G+) SAUR” value in [3] amounted to 100 PPM. Moreover, the “MIC (G-) PSAE” value in assay [12] is listed as 100 PPM. Further, the “% Control at 25 ppm SEP” value in assay [4] is reported as 100%. In addition, the “MIC (G-) PSFL” value in assay [16] was found to be 100 PPM. Moreover, in assay [8], the “% Control at 25 ppm PIR” value was 100%. In assay [13] (Table IIIa), the “MIC (G-) ECOL” value is recorded as 100 PPM. In addition, the “MIC (F) ANIG” value in assay [15] (setting [23]) is <0.8 PPM. In assay [11] (setting [17]), the “MIC ANIG” value is on record as 12.5 ppm. In assay [11] (setting [18]), the “MIC APUL” value amounted to 50 ppm.
For `C[C@@H](NC(=O)OC(C)(C)C)C(=O)OCC#CI` [Compound 23, N-t-butoxycarbonyl-D-alanine iodopropargyl ester], the inhibition of growth at 25 ppm worked out at 100% in [1]; 0% in assay [2]; 100% in assay [4]; 100% in [6]; 100% in [7]; 100% in assay [8]. The inhibition of growth at 25 ppm in assay [9] and in assay [10] was 100% in each case. Also, the MIC in [14] (M9G (minimal salts media with glucose), Table IIIa, read-out: MIC (F) APUL) is < 4 µg/mL; in [3], 63 µg/mL; in [15] (M9G (minimal salts media with glucose), Table IIIa, read-out: MIC (F) ANIG), < 4 µg/mL; in [11] (setting [24]), 6.2 µg/mL (≈ 17.6 µM); in assay [11] (setting [25]), 25 µg/mL (≈ 70.8 µM); in assay [11] (setting [26]), 1.6 µg/mL (≈ 4.53 µM). Besides, the “MIC (G+) SAUR” value in assay [3] turned out to be 32 PPM.
Take `C[C@@H](N)C(=O)OCC#CI` [Compound 24, D-alanine iodopropargyl ester trifluoroacetate]: the inhibition of growth at 25 ppm was determined as 100% in assay [1]; 0% in assay [2]; 100% in assay [4]; 75% in [6]; 0% in [7]; 100% in assay [8]. Besides, the inhibition of growth at 25 ppm in assay [9] and in [10] was 100% in each case. The MIC was < 4 µg/mL in [14] (read-out: MIC (F) APUL, M9G (minimal salts media with glucose), Table IIIa); 125 µg/mL in [3]; 63 µg/mL in assay [16] (Pseudomonas fluorescens, read-out: MIC (G-) PSFL, M9G (minimal salts media with glucose)); 32 µg/mL in [13] (Table IIIa); < 4 µg/mL in [15] (read-out: MIC (F) ANIG, M9G (minimal salts media with glucose), Table IIIa); 12.5 µg/mL in assay [11] (setting [19]). In addition, the MIC was 25 µg/mL in [11] (setting [20]) and 12.5 µg/mL in assay [11] (setting [21]). Also, the “MIC (G+) SAUR” value in assay [3] (trifluoroacetate) came out at 63 PPM. Also, the “MIC (G-) PSFL” value in [16] (trifluoroacetate) worked out at 32 PPM. Further, the “MIC (G-) ECOL” value in assay [13] (Table IIIa, trifluoroacetate) worked out at 63 PPM.
Consider `C[C@@H](NC(=O)OC(C)(C)C)C(=O)N[C@H](C)C(=O)OCC#CI` [Compound 25, N-t-butoxycarbonyl-D-alanyl-D-alanine iodopropargyl ester], for which the minimum inhibitory concentration (MIC) in assay [14] (setting [27]) is < 4 µg/mL; in assay [13] (setting [28]) it was 63 µg/mL; in assay [15] (M9G (minimal salts media with glucose), Table IIIc, iodopropargyl esters of peptides, read-out: MIC (F) ANIG), < 4 µg/mL; in assay [11] (setting [24]), 50 µg/mL (≈ 118 µM); in [11] (setting [25]) it was > 50 µg/mL; in [11] (setting [26]), 6.2 µg/mL (≈ 14.6 µM).
Turning to `C[C@H](NC(=O)[C@@H](C)NC(=O)OC(C)(C)C)C(=O)OCC#CI` [Compound 26, N-t-butoxycarbonyl-D-alanyl-L-alanine iodopropargyl ester], the MIC in assay [14] (setting [27]) was < 4 µg/mL; in [13] (setting [28]), 63 µg/mL; in assay [11] (setting [24]), 25 µg/mL (≈ 58.9 µM); in assay [11] (setting [25]), 50 µg/mL (≈ 118 µM); in assay [11] (setting [26]), 6.2 µg/mL (≈ 14.6 µM). The “MIC (F) APUL” value in [14] (setting [29]) stood at 8 PPM. Also, the “MIC (G-) ECOL” value in assay [13] (setting [28]) was 32 PPM. For the same compound, the “MIC (F) ANIG” value in [15] (setting [29]) is listed as <4 PPM.

The values above are taken from patent EP0414533A1, “Use of iodopropargyl esters of alpha-amino acid derivatives as antimicrobial agents” (ROHM AND HAAS COMPANY, priority 1989, dated 1991).
